Where “and” joins values, the source holds several entries; their conditions need not be identical. Equal values may be shown once.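 Interpolation was linear, between the two tested concentrations surrounding the appropriate level; five concentrations were tested over 48 hours in 96-well plates. The concentration for 50% growth inhibition is given as GI50. TGI denotes the concentration required for complete inhibition of growth.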
System: EKVX NSCLC
Assay: inhibition of tumour cell growth, NCI panel, 48 h

How did the TGI turn out when O=S(=O)(O)SCCNCCCCCC1CCCCC1 was run?
The TGI was 22.9 µM.

With Cc1c(Cl)cccc1NC(=O)c1sc2nc3c(cc2c1N)CCCC3 as the compound, how does the GI50 read?
Its GI50 is 0.64 µM.

What about the TGI of the same compound?
The TGI was > 100 µM.

For O=C1/C(=C\c2ccccc2)C2OCC=C3CN4CCC56c7ccccc7N1C5C2C3CC46 (stereo not given), which GI50 is on record?
The GI50 was 70.5 µM.

And the TGI?
Its TGI is > 100 µM.

Which results are given for COc1ccc2c(c1)/C(=N/OC(C)=O)c1c-2cnc2ccccc12?
GI50: 23.1 µM; TGI: > 100 µM

For Cn1cc(-c2nc(N[C@@H]3CCCC[C@@H]3N)c(F)c3c2C(=O)NC3)cn1, which GI50 is on record?
The GI50 was 14.3 µM and 20.1 µM.

What about the TGI of the same compound?
Its TGI is > 100 µM.

How did the GI50 turn out when O=C(/C=C/c1ccco1)c1ccc(Nc2nc(Nc3ccc(F)cc3)nc(Nc3ccc(F)cc3)n2)cc1 was run?
The GI50 was 54.3 µM.

And the TGI?
Its TGI is > 100 µM.

For O=C(NOCCO)c1cc(CN2OCCCC2=O)c(F)c(F)c1Nc1ccc(I)cc1F, which GI50 is on record?
The GI50 was 0.0599 µM and 0.0806 µM.

What about the TGI of the same compound?
Its TGI is > 74.5 µM.

C/C(=N/O)c1ccc(Nc2cc(-n3ccnc3)c3ccccc3n2)cc1 was tested. Which GI50 did it give?
Its GI50 is 22 µM.

What about the TGI of the same compound?
Its TGI is > 100 µM.

What does the source list for O=C(/C=C/c1cccc2ccccc12)Nc1ncc(Cc2ccccc2)s1?
GI50: 1.12 µM; TGI: > 100 µM

System: DU-145 prostate
Assay: inhibition of tumour cell growth, NCI panel, 48 h

How did the TGI turn out when O=S(=O)(O)SCCNCCCCCC1CCCCC1 was run?
Its TGI is 12.1 µM.

What does the source list for Cc1c(Cl)cccc1NC(=O)c1sc2nc3c(cc2c1N)CCCC3?
GI50: 1.38 µM; TGI: > 100 µM

O=C1/C(=C\c2ccccc2)C2OCC=C3CN4CCC56c7ccccc7N1C5C2C3CC46 (stereo not given) was tested. Which GI50 did it give?
Its GI50 is > 100 µM.

What about the TGI of the same compound?
The TGI was > 100 µM.

With COc1ccc2c(c1)/C(=N/OC(C)=O)c1c-2cnc2ccccc12 as the compound, how does the GI50 read?
Its GI50 is 36 µM.

What about the TGI of the same compound?
Its TGI is > 100 µM.

Which results are given for Cn1cc(-c2nc(N[C@@H]3CCCC[C@@H]3N)c(F)c3c2C(=O)NC3)cn1?
GI50: 11.5 µM and 14.4 µM; TGI: > 100 µM

What does the source list for O=C(/C=C/c1ccco1)c1ccc(Nc2nc(Nc3ccc(F)cc3)nc(Nc3ccc(F)cc3)n2)cc1?
GI50: 28.8 µM; TGI: > 100 µM

How did the GI50 turn out when O=C(NOCCO)c1cc(CN2OCCCC2=O)c(F)c(F)c1Nc1ccc(I)cc1F was run?
The GI50 was 12 µM and > 8.73 µM.

And the TGI?
The TGI was > 100 µM.

For C/C(=N/O)c1ccc(Nc2cc(-n3ccnc3)c3ccccc3n2)cc1, which GI50 is on record?
The GI50 was 38.1 µM.

And the TGI?
The TGI was > 100 µM.

What does the source list for O=C(/C=C/c1cccc2ccccc12)Nc1ncc(Cc2ccccc2)s1?
GI50: 1.61 µM; TGI: > 100 µM

System: NCI-H460 lung
Assay: inhibition of tumour cell growth, NCI panel, 48 h

Which TGI does the source give for O=S(=O)(O)SCCNCCCCCC1CCCCC1 here?
The TGI was 9.16 µM.

With Cc1c(Cl)cccc1NC(=O)c1sc2nc3c(cc2c1N)CCCC3 as the compound, how does the GI50 read?
Its GI50 is 0.473 µM.

And the TGI?
Its TGI is > 100 µM.

O=C1/C(=C\c2ccccc2)C2OCC=C3CN4CCC56c7ccccc7N1C5C2C3CC46 (stereo not given) was tested. Which GI50 did it give?
Its GI50 is 6.4 µM.

What about the TGI of the same compound?
The TGI was > 100 µM.

What does the source list for COc1ccc2c(c1)/C(=N/OC(C)=O)c1c-2cnc2ccccc12?
GI50: 30.3 µM; TGI: > 100 µM

Cn1cc(-c2nc(N[C@@H]3CCCC[C@@H]3N)c(F)c3c2C(=O)NC3)cn1 was tested. Which GI50 did it give?
Its GI50 is 5.87 µM and 6.08 µM.

And the TGI?
The TGI was 63.2 µM and > 100 µM.

How did the GI50 turn out when O=C(/C=C/c1ccco1)c1ccc(Nc2nc(Nc3ccc(F)cc3)nc(Nc3ccc(F)cc3)n2)cc1 was run?
The GI50 was 13.1 µM.

What about the TGI of the same compound?
Its TGI is 59 µM.

For O=C(NOCCO)c1cc(CN2OCCCC2=O)c(F)c(F)c1Nc1ccc(I)cc1F, which GI50 is on record?
Its GI50 is 12.9 µM and > 10 µM.

And the TGI?
The TGI was > 100 µM.

Which GI50 does the source give for C/C(=N/O)c1ccc(Nc2cc(-n3ccnc3)c3ccccc3n2)cc1 here?
The GI50 was 21.5 µM.

What about the TGI of the same compound?
Its TGI is > 100 µM.

What does the source list for O=C(/C=C/c1cccc2ccccc12)Nc1ncc(Cc2ccccc2)s1?
GI50: 0.861 µM; TGI: 5.19 µM

System: HCT-15 colon
Assay: inhibition of tumour cell growth, NCI panel, 48 h

With O=S(=O)(O)SCCNCCCCCC1CCCCC1 as the compound, how does the TGI read?
The TGI was 24.5 µM.

Which GI50 does the source give for Cc1c(Cl)cccc1NC(=O)c1sc2nc3c(cc2c1N)CCCC3 here?
The GI50 was 0.392 µM.

What about the TGI of the same compound?
The TGI was > 100 µM.

Which results are given for O=C1/C(=C\c2ccccc2)C2OCC=C3CN4CCC56c7ccccc7N1C5C2C3CC46 (stereo not given)?
GI50: 7.77 µM; TGI: > 100 µM

Which GI50 does the source give for COc1ccc2c(c1)/C(=N/OC(C)=O)c1c-2cnc2ccccc12 here?
Its GI50 is 34.9 µM.

What about the TGI of the same compound?
Its TGI is > 100 µM.

What does the source list for Cn1cc(-c2nc(N[C@@H]3CCCC[C@@H]3N)c(F)c3c2C(=O)NC3)cn1?
GI50: 12 µM and 13.3 µM; TGI: > 100 µM

Which GI50 does the source give for O=C(/C=C/c1ccco1)c1ccc(Nc2nc(Nc3ccc(F)cc3)nc(Nc3ccc(F)cc3)n2)cc1 here?
Its GI50 is 22.5 µM.

What about the TGI of the same compound?
Its TGI is > 100 µM.

For O=C(NOCCO)c1cc(CN2OCCCC2=O)c(F)c(F)c1Nc1ccc(I)cc1F, which GI50 is on record?
The GI50 was 5.74 µM and > 6.24 µM.

And the TGI?
Its TGI is > 100 µM.

C/C(=N/O)c1ccc(Nc2cc(-n3ccnc3)c3ccccc3n2)cc1 was tested. Which GI50 did it give?
The GI50 was 14.3 µM.

What about the TGI of the same compound?
The TGI was 37.3 µM.

For O=C(/C=C/c1cccc2ccccc12)Nc1ncc(Cc2ccccc2)s1, which GI50 is on record?
The GI50 was 0.507 µM.

What about the TGI of the same compound?
The TGI was > 100 µM.

System: CCRF-CEM leukemia
Assay: inhibition of tumour cell growth, NCI panel, 48 h

How did the TGI turn out when O=S(=O)(O)SCCNCCCCCC1CCCCC1 was run?
The TGI was > 100 µM.

With Cc1c(Cl)cccc1NC(=O)c1sc2nc3c(cc2c1N)CCCC3 as the compound, how does the GI50 read?
Its GI50 is 0.447 µM.

What about the TGI of the same compound?
Its TGI is > 100 µM.

Which GI50 does the source give for O=C1/C(=C\c2ccccc2)C2OCC=C3CN4CCC56c7ccccc7N1C5C2C3CC46 (stereo not given) here?
The GI50 was 6.06 µM.

And the TGI?
The TGI was > 100 µM.

Which GI50 does the source give for COc1ccc2c(c1)/C(=N/OC(C)=O)c1c-2cnc2ccccc12 here?
The GI50 was 28.5 µM.

And the TGI?
Its TGI is > 100 µM.

How did the GI50 turn out when Cn1cc(-c2nc(N[C@@H]3CCCC[C@@H]3N)c(F)c3c2C(=O)NC3)cn1 was run?
Its GI50 is 5.09 µM and 5.26 µM.

What about the TGI of the same compound?
The TGI was > 100 µM.

What does the source list for O=C(/C=C/c1ccco1)c1ccc(Nc2nc(Nc3ccc(F)cc3)nc(Nc3ccc(F)cc3)n2)cc1?
GI50: 19 µM; TGI: > 100 µM

Which results are given for O=C(NOCCO)c1cc(CN2OCCCC2=O)c(F)c(F)c1Nc1ccc(I)cc1F?
GI50: 39.5 µM and > 10 µM; TGI: > 100 µM

What does the source list for C/C(=N/O)c1ccc(Nc2cc(-n3ccnc3)c3ccccc3n2)cc1?
GI50: 0.126 µM; TGI: 1.99 µM

Which GI50 does the source give for O=C(/C=C/c1cccc2ccccc12)Nc1ncc(Cc2ccccc2)s1 here?
The GI50 was 0.852 µM.

What about the TGI of the same compound?
The TGI was > 100 µM.

Reference: PubChem BioAssay (NCI)
